The results in this text go back to BindingDB's records for doi:10.7270/Q2SN07C4 (Vanderbilt Screening Center for GPCRs, Ion Channels and …, 2009).

pEC50: −log10 of the molar value.

The assay deals with T1, Muscarinic acetylcholine receptor M4 (Rattus norvegicus, UniProt P08485).
T1 sequence (P08485 whole entry): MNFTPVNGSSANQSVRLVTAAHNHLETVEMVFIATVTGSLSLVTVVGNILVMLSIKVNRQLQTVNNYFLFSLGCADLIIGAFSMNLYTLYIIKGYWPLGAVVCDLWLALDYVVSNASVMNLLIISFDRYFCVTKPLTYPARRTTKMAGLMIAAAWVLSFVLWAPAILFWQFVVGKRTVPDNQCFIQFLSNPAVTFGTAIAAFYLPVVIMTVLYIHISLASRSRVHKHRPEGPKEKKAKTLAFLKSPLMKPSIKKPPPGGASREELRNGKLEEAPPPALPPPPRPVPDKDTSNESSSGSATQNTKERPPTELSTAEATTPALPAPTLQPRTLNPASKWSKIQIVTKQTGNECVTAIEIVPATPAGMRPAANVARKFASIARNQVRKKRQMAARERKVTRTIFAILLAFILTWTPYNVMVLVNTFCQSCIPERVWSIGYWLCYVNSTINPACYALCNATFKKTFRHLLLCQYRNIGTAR
The experiment in a line: rat M4 radioligand competition binding – biochemical, NMS competition, mechanism study for M4 PAM project, late-stage follow-up (AID 1939). For orientation: In a radioligand displacement assay an active substance lowers the binding of a labelled ligand.

As for `Cc1cc(C)c2c(N)c(C(=O)NCc3ccc4c(c3)OCO4)sc2n1` [3-amino-4,6-dimethyl-N-piperonyl-thieno[2,3-b]pyridine-2-carboxamide], the pEC50 was > 5.85.

For orientation: pEC50 means the negative decadic logarithm of the EC50, by convention in mol/L.
